Source: ChEMBL document CHEMBL1201862, “PubChem BioAssay data set” (2004)
“And” between values parts separate entries of the source, which are not always exact repeats. Identical values can stand only once. The source made the active and inactive calls.

What was measured:
[1] = molecular target: T1, Corticotropin-releasing factor receptor 2/Corticotropin-releasing factor-binding protein (Homo sapiens, UniProt P24387+Q13324); experiment: Dose Response confirmation of uHTS hits for small molecule antagonists of the CRF-binding protein and CRF-R2 receptor complex.; format: functional; conditions: read-out: IC50_Mean
T1 sequence (Q13324 whole entry): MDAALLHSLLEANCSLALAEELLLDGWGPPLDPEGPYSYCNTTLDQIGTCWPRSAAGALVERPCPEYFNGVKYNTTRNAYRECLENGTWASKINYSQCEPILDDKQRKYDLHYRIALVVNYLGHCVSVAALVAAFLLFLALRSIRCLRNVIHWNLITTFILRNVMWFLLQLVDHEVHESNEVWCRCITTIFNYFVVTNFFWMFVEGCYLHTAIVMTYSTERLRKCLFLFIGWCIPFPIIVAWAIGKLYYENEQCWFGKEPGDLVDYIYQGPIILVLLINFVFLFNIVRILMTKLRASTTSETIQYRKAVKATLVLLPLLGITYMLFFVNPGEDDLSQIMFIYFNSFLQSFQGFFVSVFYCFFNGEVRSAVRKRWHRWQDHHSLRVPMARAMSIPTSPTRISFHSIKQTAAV
T1 sequence (P24387 whole entry): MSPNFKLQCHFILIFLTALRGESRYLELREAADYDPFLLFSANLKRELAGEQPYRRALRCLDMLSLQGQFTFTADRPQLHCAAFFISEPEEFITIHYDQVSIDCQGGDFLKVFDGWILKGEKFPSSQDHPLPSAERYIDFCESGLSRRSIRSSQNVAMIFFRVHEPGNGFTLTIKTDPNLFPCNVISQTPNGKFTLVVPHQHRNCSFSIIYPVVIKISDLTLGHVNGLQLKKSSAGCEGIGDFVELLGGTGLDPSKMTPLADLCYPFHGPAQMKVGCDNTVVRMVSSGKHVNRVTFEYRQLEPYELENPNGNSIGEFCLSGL

[2] = molecular target: T1, Corticotropin-releasing factor receptor 2/Corticotropin-releasing factor-binding protein; experiment: activators of CRF receptor 2 with binding protein – uHTS hits, confirmation (AID 602473); format: functional; conditions: read-out: EC50_Mean
Cytochrome P450 3A4 = Cytochrome P450 3A4 (Homo sapiens, UniProt P08684); conditions: Potency;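 note: confirmatory qHTS run detecting inhibitors and substrates of CYP3A4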
Chain of Cytochrome P450 3A4 (P08684 whole entry): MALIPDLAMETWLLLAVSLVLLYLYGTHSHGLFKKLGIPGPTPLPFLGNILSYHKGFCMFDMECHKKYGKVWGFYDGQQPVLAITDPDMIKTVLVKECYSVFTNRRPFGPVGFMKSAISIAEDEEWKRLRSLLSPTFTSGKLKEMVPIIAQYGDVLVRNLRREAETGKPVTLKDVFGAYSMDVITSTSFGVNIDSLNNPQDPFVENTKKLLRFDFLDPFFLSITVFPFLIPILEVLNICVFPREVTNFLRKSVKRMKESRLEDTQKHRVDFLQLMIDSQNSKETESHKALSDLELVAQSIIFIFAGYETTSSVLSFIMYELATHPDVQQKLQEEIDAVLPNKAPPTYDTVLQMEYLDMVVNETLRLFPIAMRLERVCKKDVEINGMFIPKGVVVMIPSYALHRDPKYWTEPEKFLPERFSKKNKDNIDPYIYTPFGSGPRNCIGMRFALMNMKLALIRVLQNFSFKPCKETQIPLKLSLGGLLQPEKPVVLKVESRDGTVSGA

[3] = molecular target: Induced myeloid leukemia cell differentiation protein Mcl-1 (Homo sapiens, UniProt Q07820); format: functional
Chain of Induced myeloid leukemia cell differentiation protein Mcl-1 (Q07820 whole entry): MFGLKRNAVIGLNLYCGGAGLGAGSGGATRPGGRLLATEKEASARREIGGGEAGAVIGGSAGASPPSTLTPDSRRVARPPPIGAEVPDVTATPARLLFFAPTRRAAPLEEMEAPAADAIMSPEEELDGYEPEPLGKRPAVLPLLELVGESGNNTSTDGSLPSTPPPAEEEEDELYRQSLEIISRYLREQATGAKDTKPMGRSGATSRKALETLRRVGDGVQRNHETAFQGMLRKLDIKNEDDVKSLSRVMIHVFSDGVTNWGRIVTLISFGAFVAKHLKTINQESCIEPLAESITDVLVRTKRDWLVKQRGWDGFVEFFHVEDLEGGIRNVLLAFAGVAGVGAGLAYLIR

Leucine aminopeptidase = molecular target: T2, Leucine aminopeptidase (Plasmodium falciparum 3D7, UniProt Q8IL11); experiment: P. falciparum M17LAP inhibitors, primary screen, biochemical, fluorogenic H-Leu-NHMec substrate, 1536-well (AID 1619); format: functional
T2 sequence (Q8IL11 whole entry): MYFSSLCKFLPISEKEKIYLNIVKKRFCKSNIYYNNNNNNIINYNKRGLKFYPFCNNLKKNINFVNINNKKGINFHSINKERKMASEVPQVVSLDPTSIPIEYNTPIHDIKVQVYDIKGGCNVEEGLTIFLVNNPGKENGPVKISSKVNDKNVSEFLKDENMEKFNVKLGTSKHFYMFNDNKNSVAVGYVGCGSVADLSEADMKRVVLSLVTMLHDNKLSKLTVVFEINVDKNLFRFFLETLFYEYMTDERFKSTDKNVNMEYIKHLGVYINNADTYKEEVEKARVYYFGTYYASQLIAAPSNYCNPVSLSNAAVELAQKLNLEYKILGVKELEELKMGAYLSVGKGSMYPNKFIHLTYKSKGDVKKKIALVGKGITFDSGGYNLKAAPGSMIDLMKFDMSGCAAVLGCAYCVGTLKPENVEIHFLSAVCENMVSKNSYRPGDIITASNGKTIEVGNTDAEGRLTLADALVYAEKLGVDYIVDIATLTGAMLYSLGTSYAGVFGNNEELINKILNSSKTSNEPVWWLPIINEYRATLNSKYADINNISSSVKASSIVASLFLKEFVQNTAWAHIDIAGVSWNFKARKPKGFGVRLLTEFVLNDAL

Fatty acid synthase = Fatty acid synthase (Homo sapiens, UniProt P49327); experiment: inhibition of human FAS-TE enzyme activity – biochemical, kinetic fluorescence intensity, dose response (AID 624326); format: functional;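 note: rate of fluorescence rise from hydrolysis of a fluorogenic O-methyl fluorescein ester substrate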
Chain of Fatty acid synthase (P49327 whole entry): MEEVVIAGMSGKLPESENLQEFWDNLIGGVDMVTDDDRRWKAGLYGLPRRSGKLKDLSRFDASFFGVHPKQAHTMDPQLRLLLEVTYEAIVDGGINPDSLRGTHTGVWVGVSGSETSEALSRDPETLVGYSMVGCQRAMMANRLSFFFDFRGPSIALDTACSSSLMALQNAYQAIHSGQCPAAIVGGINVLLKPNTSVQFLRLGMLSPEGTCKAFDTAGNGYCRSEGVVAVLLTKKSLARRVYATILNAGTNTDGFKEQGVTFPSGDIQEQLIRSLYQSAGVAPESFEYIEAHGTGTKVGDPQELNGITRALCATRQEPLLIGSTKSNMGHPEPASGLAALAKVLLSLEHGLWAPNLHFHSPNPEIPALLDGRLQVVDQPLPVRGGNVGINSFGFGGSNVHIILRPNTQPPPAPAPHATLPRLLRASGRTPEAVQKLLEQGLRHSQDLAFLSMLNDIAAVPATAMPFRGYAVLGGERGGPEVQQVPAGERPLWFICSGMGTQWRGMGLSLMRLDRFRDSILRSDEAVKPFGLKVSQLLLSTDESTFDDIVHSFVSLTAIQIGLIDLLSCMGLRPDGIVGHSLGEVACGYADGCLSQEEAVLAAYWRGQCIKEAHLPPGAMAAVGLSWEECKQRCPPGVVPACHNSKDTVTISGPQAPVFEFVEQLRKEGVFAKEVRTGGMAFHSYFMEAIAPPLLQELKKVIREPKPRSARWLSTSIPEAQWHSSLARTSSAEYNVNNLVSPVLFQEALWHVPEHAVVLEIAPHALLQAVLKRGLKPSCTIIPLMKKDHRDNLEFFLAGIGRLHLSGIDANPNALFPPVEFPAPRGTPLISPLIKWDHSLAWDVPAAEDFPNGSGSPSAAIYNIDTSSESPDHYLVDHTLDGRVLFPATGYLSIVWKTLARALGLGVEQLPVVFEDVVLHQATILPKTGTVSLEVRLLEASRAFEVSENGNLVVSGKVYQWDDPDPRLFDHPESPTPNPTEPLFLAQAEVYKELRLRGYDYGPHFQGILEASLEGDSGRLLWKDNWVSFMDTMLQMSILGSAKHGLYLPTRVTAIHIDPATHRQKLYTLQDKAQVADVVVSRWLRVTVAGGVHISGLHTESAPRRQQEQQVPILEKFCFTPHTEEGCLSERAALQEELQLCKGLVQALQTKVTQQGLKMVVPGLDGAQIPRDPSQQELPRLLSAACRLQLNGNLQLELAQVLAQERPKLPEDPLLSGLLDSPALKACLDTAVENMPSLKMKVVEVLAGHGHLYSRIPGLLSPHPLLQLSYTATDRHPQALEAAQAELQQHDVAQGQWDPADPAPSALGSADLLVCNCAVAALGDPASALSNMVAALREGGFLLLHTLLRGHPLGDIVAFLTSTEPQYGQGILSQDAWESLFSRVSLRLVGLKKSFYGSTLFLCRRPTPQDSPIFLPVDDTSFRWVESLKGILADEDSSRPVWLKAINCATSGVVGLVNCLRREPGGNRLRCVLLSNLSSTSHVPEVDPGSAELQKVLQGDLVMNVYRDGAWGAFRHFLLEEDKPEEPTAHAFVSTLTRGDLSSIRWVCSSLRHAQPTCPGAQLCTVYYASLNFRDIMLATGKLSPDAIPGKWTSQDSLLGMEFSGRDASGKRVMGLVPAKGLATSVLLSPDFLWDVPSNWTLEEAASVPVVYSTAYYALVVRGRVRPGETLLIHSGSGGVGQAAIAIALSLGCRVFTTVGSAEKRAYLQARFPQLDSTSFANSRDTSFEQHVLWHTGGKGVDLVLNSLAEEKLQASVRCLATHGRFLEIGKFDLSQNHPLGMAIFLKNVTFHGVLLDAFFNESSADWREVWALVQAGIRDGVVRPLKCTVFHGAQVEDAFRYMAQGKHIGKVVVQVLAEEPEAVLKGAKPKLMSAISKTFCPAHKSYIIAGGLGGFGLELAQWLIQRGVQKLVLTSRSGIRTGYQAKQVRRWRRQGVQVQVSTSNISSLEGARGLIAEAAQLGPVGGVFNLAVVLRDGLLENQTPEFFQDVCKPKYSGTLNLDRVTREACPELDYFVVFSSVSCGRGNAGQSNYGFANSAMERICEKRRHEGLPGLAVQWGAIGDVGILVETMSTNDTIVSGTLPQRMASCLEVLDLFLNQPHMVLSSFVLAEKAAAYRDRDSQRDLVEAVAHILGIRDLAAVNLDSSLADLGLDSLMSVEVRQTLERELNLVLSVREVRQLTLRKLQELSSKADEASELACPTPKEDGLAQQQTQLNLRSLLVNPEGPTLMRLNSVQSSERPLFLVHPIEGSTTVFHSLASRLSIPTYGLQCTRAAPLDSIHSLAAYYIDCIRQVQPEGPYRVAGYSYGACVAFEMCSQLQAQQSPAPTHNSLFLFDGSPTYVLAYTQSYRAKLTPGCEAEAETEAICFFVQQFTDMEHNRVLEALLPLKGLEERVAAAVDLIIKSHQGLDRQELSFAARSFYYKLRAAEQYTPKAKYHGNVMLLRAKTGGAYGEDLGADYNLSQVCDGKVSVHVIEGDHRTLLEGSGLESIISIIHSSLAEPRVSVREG

[4] = NIH3T3 cell viability loss – ATP luminescence, mouse fibroblasts, counter-screen, dose response (AID 2010); format: functional, cell-based;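 note: cells exposed to compound for about 90 hours before reading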
[5] = Trypanosoma cruzi growth suppression in host cells – NIH3T3 host cells, beta-gal luminescence, confirmation (AID 2044); format: functional, cell-based;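 note: intracellular parasites grown in NIH/3T3 mouse fibroblasts as host cells; luminescent beta-galactosidase reporter signal from transgenic T. cruzi replicating inside host cells; inhibitors lower the luminescence signal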
[6] = molecular target: T3, Replicative DNA helicase DnaB (Mycobacterium tuberculosis, UniProt P9WMR3); experiment: DnaB intein splicing inhibitors, dose response, biochemical, cell-free fluorescence (AID 449749); format: functional
T3 sequence (P9WMR3 whole entry): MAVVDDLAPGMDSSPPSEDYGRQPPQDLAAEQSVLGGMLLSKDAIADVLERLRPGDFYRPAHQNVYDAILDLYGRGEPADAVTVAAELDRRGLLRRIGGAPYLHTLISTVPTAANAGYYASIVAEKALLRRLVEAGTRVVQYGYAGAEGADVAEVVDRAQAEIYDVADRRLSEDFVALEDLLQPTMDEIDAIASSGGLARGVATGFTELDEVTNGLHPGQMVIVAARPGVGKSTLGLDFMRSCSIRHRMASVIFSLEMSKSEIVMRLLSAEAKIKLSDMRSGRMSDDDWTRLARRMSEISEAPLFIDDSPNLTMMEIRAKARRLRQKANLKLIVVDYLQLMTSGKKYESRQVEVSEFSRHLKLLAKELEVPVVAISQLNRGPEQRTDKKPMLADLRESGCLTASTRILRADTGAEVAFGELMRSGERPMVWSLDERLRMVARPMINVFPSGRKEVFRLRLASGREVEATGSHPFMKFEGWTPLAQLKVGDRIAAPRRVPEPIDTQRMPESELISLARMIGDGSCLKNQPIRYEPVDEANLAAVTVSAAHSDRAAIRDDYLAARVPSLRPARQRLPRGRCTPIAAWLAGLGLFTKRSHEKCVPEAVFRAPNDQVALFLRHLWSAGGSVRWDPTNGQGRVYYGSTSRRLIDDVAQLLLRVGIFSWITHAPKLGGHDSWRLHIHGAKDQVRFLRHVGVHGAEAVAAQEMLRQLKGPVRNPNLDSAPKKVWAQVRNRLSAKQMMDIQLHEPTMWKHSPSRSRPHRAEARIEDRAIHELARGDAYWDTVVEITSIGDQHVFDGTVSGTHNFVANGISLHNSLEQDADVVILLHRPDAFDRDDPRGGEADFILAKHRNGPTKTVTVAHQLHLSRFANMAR

Protein RecA = molecular target: T4, Protein RecA (Mycobacterium tuberculosis, UniProt P9WHJ3); experiment: Fluorescence Cell-Free Homogeneous Dose Retest to Identify Inhibitors of RecA-Intein Splicing Activity. [Related pubchem assays (depositor defined):AID2097, AID2223, AID489010, AID492950]; format: functional
T4 sequence (P9WHJ3 whole entry): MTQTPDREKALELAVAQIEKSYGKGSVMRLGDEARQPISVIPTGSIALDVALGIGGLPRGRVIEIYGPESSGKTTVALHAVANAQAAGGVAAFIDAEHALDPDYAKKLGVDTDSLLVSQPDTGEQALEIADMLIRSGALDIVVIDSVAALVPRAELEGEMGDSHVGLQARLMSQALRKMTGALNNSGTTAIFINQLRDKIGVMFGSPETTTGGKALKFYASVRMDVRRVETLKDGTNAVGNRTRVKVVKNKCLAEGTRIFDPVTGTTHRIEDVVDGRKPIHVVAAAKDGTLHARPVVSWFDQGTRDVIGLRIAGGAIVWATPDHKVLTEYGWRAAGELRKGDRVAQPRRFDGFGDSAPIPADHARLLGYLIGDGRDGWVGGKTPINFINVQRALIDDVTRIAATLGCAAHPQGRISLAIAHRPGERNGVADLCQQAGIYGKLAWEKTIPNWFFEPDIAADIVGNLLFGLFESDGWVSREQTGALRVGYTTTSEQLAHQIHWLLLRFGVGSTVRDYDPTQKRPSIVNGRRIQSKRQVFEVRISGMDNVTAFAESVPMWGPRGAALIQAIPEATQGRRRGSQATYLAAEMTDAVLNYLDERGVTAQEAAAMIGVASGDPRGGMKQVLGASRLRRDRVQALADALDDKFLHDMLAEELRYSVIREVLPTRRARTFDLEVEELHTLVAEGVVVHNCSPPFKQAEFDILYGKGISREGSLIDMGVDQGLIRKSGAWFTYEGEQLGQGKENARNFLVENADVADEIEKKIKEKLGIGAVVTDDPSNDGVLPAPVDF

SN12K1 = experiment: cells; format: functional; conditions: Homo sapiens
P388 = experiment: cells; format: functional; conditions: Mus musculus
P388/ADR = experiment: cells; format: functional; conditions: Mus musculus

## CN(C)c1ccc(C(=O)NNC(=O)c2ccc(Cl)cc2)cc1
[1]
  IC50: > 47.1 µM (inactive)
[2]
  EC50: > 53 µM (inactive)

## CC(=O)OC[C@@]1(O)C[C@]23CCC4c5ccoc5CC[C@@]4(C)C2CCC1C3 (some centres not stated)
Cytochrome P450 3A4
  AC50: 31.6 µM (inconclusive)

## OCC1OC(C#Cc2ccccc2)C=CC1O (configuration not stated)
Cytochrome P450 3A4
  AC50: 3.16 µM (inconclusive) and 6.31 µM (inconclusive) (2×)

## COC(=O)C1=C(C(=O)c2ccccc2)C(c2ccc(O)c(OC)c2)n2nnnc2N1 (configuration not stated)
[1]
  IC50: > 47.1 µM (inactive)
[2]
  EC50: > 53 µM (inactive)

## O=C(/C=C/c1ccccc1)c1ccc(NC2=NCCCS2)cc1
[3]
  IC50: 8.3 µM (active)

## COc1ccc(OC)c(S(=O)(=O)n2nnc3cc(Cl)ccc32)c1
Leucine aminopeptidase
  IC50: 103 µM (active)

## O=C(O)C1CC=CCC1C(=O)Nc1ccccc1 (configuration not stated)
Leucine aminopeptidase
  IC50: 29 µM (active)

## CN(C)S(=O)(=O)c1ccc(-c2csc(-c3cccnc3)n2)cc1
Fatty acid synthase
  IC50: 3.34 µM (active)

## COc1ccc2c(C)cc(SCn3nnc4ccccc4c3=O)nc2c1
[1]
  IC50: > 47.1 µM (inactive)
[2]
  EC50: > 53 µM (inactive)

## CCCn1c(-c2ccc(F)cc2)nc2c(NCCCN(CC)CC)nc(C)nc21
Cytochrome P450 3A4
  AC50: 20 µM (inconclusive)

## Cn1c(N)c(C(=O)COC(=O)c2cc(C3CC3)nc3ccccc23)c(=O)n(C)c1=O
Cytochrome P450 3A4
  AC50: 39.8 µM (inconclusive)

## Fc1ccc(OCCCCCn2ccnc2)cc1
[1]
  IC50: > 47.1 µM (inactive)
[4]
  EC50: > 60 µM (not active)
[5]
  EC50: 1.67 µM (active)
[2]
  EC50: > 53 µM (inactive)

## COc1ccc(NC(=O)C(CC(=O)O)Cc2ccccc2)cc1 (configuration not stated)
Leucine aminopeptidase
  IC50: 28.1 µM (active)

## CC(=O)N1CC=CC1(C)C(=O)NCC1CC1 (configuration not stated)
Cytochrome P450 3A4
  AC50: 31.6 µM (inconclusive)

## Cn1ccnc1SCc1cn2ccccc2n1
[1]
  IC50: > 47.1 µM (inactive)
[2]
  EC50: > 53 µM (inactive)

## Cc1ccc(C(=O)COC(=O)CNC(=O)c2ccc(N3C(=O)c4ccccc4C3=O)cc2)cc1C
[3]
  IC50: 2.13 µM (not active)

## Cc1ccc(-c2[nH]nc3c2C(c2ccsc2)C(C#N)=C(N)O3)cc1 (configuration not stated)
Leucine aminopeptidase
  IC50: 11.3 µM (active)
[6]
  AC50: 3.26 µM (active)
Protein RecA
  EC50: 1.2 µM (active)

## CNC(=O)OCc1nc(SC)n(C)c1CO
SN12K1
  GI50: > 100 µM (inactive)
P388
  GI50: > 100 µM (inactive)
P388/ADR
  GI50: > 100 µM (inactive)

## Cc1c(-c2cc3n(n2)C(c2cccs2)C(C#N)=C(c2ccccc2)N3)c(=O)n(-c2ccccc2)n1C (configuration not stated)
SN12K1
  GI50: 86.5 µM (inactive)
P388
  GI50: 42.1 µM (inactive)
P388/ADR
  GI50: 76.4 µM (inactive)

## CC1=NN(C(=O)c2ccccc2)C(=O)C1/N=N/c1ccccc1C(=O)O (configuration not stated)
SN12K1
  GI50: 3.24 µM (inactive)
P388
  GI50: 9.51 µM (inactive)
P388/ADR
  GI50: 5.55 µM (inactive)

## Cc1c2cc[n+](C)cc2c(COC2OC(CO)C(O)C2O)c2c3ccccc3n(C)c12 (configuration not stated)
SN12K1
  GI50: 58.2 µM (inactive)
P388
  GI50: 2.69 µM (inactive)
P388/ADR
  GI50: > 100 µM (inactive)

## CN(C)CCNC(=O)c1cccc2c1Nc1ccccc1S2
SN12K1
  GI50: 8.18 µM (inactive)
P388
  GI50: 2.25 µM (inactive)
P388/ADR
  GI50: 2.84 µM (inactive)

## COc1cccc2c1C(=O)c1c(O)c3c(c(O)c1C2=O)C[C@@](O)(C(=O)CO)C[C@@H]3OC1CC(N2CCOCC2C#N)C(O)C(C)O1 (some centres not stated)
SN12K1
  GI50: 1.13e-05 µM (active)
P388
  GI50: 2.9e-06 µM (active)

## Cc1c2cc[n+]([O-])cc2c(C)c2c1[nH]c1ccccc12
SN12K1
  GI50: 3.38 µM (inactive)
P388
  GI50: 0.753 µM (active)
P388/ADR
  GI50: 4.45 µM (inactive)

## CCc1nnc(NS(=O)(=O)c2ccc(/N=C/c3c(C)[nH]n(-c4cccc(Cl)c4)c3=O)cc2)s1
Leucine aminopeptidase
  IC50: 11.3 µM (active)

## O=C(CSc1nnc(O)nc1O)N/N=C/c1ccccc1
Leucine aminopeptidase
  IC50: 21.1 µM (active)

## OCC1OC(n2cnc3c2NC=NC[C@H]3O)CC1O (some centres not stated)
SN12K1
  GI50: 405 µM (inactive)
P388
  GI50: 366 µM (inactive)
P388/ADR
  GI50: 291 µM (inactive)

## NC(=O)/N=N/C(N)=O [E927A]
Cytochrome P450 3A4
  AC50: 31.6 µM (inconclusive)
